Literature values as cited in PubChem BioAssay AID1259409 (Chemical Carcinogenesis Research Information System (CCRIS), 2018).

Tested on: rodent chemically induced tumor inhibition, incidence and multiplicity
Assay: CCRIS tumor inhibitor studies
From the text: The CCRIS database contains chemical records with carcinogenicity, mutagenicity, tumor promotion, and tumor inhibition test results. It was developed by the National Cancer Institute (NCI). Data are derived from studies cited in primary journals, current awareness tools, NCI reports, and other sources. Test results have been reviewed by experts in carcinogenesis and mutagenesis.
CCRIS provides historical information from the years 1985 - 2011. It is no longer updated.
This is an archive assay for CCRIS tumor inhibitor studies.

O=C1OC(c2ccc(O)cc2)Cc2cccc(O)c21 (stereo not drawn)
tumour outcome (control, treated, inhibition, significance) (Carcinogen: AZOXYMETHANE [25843-45-2], Dose [Inhibitor]: 200 PPM IN DIET FOR 4 WK BEGINNING 1 WK PRIOR TO FIRST CARCINOGEN DOSE (STUDY DURATION: 35 WK), Route [Inhibitor]: ORAL, Species: RAT, Strain/Sex: F344/MALE, Target Tissue: Type of Lesion: COLON: ADENOMA, Dose [Carcinogen]: 15 MG/KG BW 1X/WK FOR 3 WK (STUDY DURATION: 35 WK), Promoter: NONE): 6/28 (21%), 2/29 (7%), 67%, not significant
tumour outcome (control, treated, inhibition, significance) (Carcinogen: AZOXYMETHANE [25843-45-2], Dose [Inhibitor]: 200 PPM IN DIET FOR 4 WK BEGINNING 1 WK PRIOR TO FIRST CARCINOGEN DOSE (STUDY DURATION: 35 WK), Route [Inhibitor]: ORAL, Species: RAT, Strain/Sex: F344/MALE, Target Tissue: Type of Lesion: COLON: CARCINOMA, Dose [Carcinogen]: 15 MG/KG BW 1X/WK FOR 3 WK (STUDY DURATION: 35 WK), Promoter: NONE): 8/28 (29%), 10/29 (34%), -17%, not significant
tumour outcome (control, treated, inhibition, significance) (Carcinogen: AZOXYMETHANE [25843-45-2], Dose [Inhibitor]: 200 PPM IN DIET FOR 4 WK BEGINNING 1 WK PRIOR TO FIRST CARCINOGEN DOSE (STUDY DURATION: 35 WK), Route [Inhibitor]: ORAL, Species: RAT, Strain/Sex: F344/MALE, Target Tissue: Type of Lesion: SMALL INTESTINE: CARCINOMA, Dose [Carcinogen]: 15 MG/KG BW 1X/WK FOR 3 WK (STUDY DURATION: 35 WK), Promoter: NONE): 7/28 (25%), 4/29 (14%), 44%, not significant

Cc1ccc(-c2cc(C(F)(F)F)nn2-c2ccc(S(N)(=O)=O)cc2)cc1
tumour outcome (control, treated, inhibition, significance) (Carcinogen: N-BUTYL-N-N(4-4-HYDROXYBUTYL)-NITROSAMINE [3817-11-6], Dose [Inhibitor]: 200 MG/KG IN DIET FOR 36 WK BEGINNING 1 WK PRIOR TO FIRST CARCINOGEN DOSE (STUDY DURATION: 36 WK), Route [Inhibitor]: ORAL, Species: MOUSE, Strain/Sex: B6D2F1/MALE, Target Tissue: Type of Lesion: URINARY BLADDER: TUMOR, Dose [Carcinogen]: 7.5 MG IN 0.1 ML 20% ETHANOL 1X/WK FOR 12 WK (STUDY DURATION: 36 WK), Promoter: NONE): 51%, 29%, 43%, significance level not shown
tumour outcome (control, treated, inhibition, significance) (Carcinogen: N-BUTYL-N-N(4-4-HYDROXYBUTYL)-NITROSAMINE [3817-11-6], Dose [Inhibitor]: 500 MG/KG IN DIET FOR 27 WK BEGINNING 1 WK POST LAST CARCINOGEN DOSE (STUDY DURATION: 8 MONTHS), Route [Inhibitor]: ORAL, Species: RAT, Strain/Sex: F344/FEMALE, Target Tissue: Type of Lesion: URINARY BLADDER: TUMOR, Dose [Carcinogen]: 150 MG IN 0.5 ML 20% ETHANOL 2X/WK FOR 8 WK (STUDY DURATION: 8 MONTHS), Promoter: NONE): 57%, 4%, 93%, significance level not shown
tumour outcome (control, treated, inhibition, significance) (Carcinogen: N-BUTYL-N-N(4-4-HYDROXYBUTYL)-NITROSAMINE [3817-11-6], Dose [Inhibitor]: 500 MG/KG IN DIET FOR 36 WK BEGINNING 1 WK PRIOR TO FIRST CARCINOGEN DOSE (STUDY DURATION: 36 WK), Route [Inhibitor]: ORAL, Species: MOUSE, Strain/Sex: B6D2F1/MALE, Target Tissue: Type of Lesion: URINARY BLADDER: TUMOR, Dose [Carcinogen]: 7.5 MG IN 0.1 ML 20% ETHANOL 1X/WK FOR 12 WK (STUDY DURATION: 36 WK), Promoter: NONE): 51%, 24%, 53%, significance level not shown
tumour outcome (control, treated, inhibition, significance) (Carcinogen: N-BUTYL-N-N(4-4-HYDROXYBUTYL)-NITROSAMINE [3817-11-6], Dose [Inhibitor]: 500 MG/KG IN DIET FOR 36 WK BEGINNING 1 WK PRIOR TO FIRST CARCINOGEN DOSE (STUDY DURATION: 36 WK), Route [Inhibitor]: ORAL, Species: RAT, Strain/Sex: F344/FEMALE, Target Tissue: Type of Lesion: URINARY BLADDER: TUMOR, Dose [Carcinogen]: 150 MG IN 0.5 ML 20% ETHANOL 2X/WK FOR 8 WK (STUDY DURATION: 36 WK), Promoter: NONE): 17/30 (57%), 4/28 (14%), 75%, significance level not shown
tumour outcome (control, treated, inhibition, significance) (Carcinogen: N-BUTYL-N-N(4-4-HYDROXYBUTYL)-NITROSAMINE [3817-11-6], Dose [Inhibitor]: 1000 MG/KG IN DIET FOR 27 WK BEGINNING 1 WK POST LAST CARCINOGEN DOSE (STUDY DURATION: 8 MONTHS), Route [Inhibitor]: ORAL, Species: RAT, Strain/Sex: F344/FEMALE, Target Tissue: Type of Lesion: URINARY BLADDER: TUMOR, Dose [Carcinogen]: 150 MG IN 0.5 ML 20% ETHANOL 2X/WK FOR 8 WK (STUDY DURATION: 8 MONTHS), Promoter: NONE): 57%, 0%, 100%, significance level not shown
tumour outcome (control, treated, inhibition, significance) (Carcinogen: N-BUTYL-N-N(4-4-HYDROXYBUTYL)-NITROSAMINE [3817-11-6], Dose [Inhibitor]: 1000 MG/KG IN DIET FOR 36 WK BEGINNING 1 WK PRIOR TO FIRST CARCINOGEN DOSE (STUDY DURATION: 36 WK), Route [Inhibitor]: ORAL, Species: RAT, Strain/Sex: F344/FEMALE, Target Tissue: Type of Lesion: URINARY BLADDER: TUMOR, Dose [Carcinogen]: 150 MG IN 0.5 ML 20% ETHANOL 2X/WK FOR 8 WK (STUDY DURATION: 36 WK), Promoter: NONE): 17/30 (57%), 6/29 (21%), 63%, significance level not shown
tumour outcome (control, treated, inhibition, significance) (Carcinogen: N-BUTYL-N-N(4-4-HYDROXYBUTYL)-NITROSAMINE [3817-11-6], Dose [Inhibitor]: 1250 MG/KG IN DIET FOR 36 WK BEGINNING 1 WK PRIOR TO FIRST CARCINOGEN DOSE (STUDY DURATION: 36 WK), Route [Inhibitor]: ORAL, Species: MOUSE, Strain/Sex: B6D2F1/MALE, Target Tissue: Type of Lesion: URINARY BLADDER: TUMOR, Dose [Carcinogen]: 7.5 MG IN 0.1 ML 20% ETHANOL 1X/WK FOR 12 WK (STUDY DURATION: 36 WK), Promoter: NONE): 51%, 12%, 76%, significance level not shown
outcome (Carcinogen: N-nitrosodiethylamine (55-18-5), Dose [Inhibitor]: 1500 mg/kg in diet for 38 wk, study duration 38 wk, Route [Inhibitor]: Oral, Species: Rat, Strain/Sex: Wistar/Male, Target Tissue: Type of Lesion: Liver: Neoplasia, Dose [Carcinogen]: 100 mg/l in drinking water for 4 mo, Promoter: None): 91.7, 65.2, p<0.05

C[C@]12CCC(=O)C=C1CC[C@@H]1[C@@H]2CC[C@@]2(C)[C@H]1CC[C@]2(C)O
tumour outcome (control, treated, inhibition, significance) (Carcinogen: N-BIS(2-HYDROXYPROPYL)NITROSAMINE, 53609-64-6, Dose [Inhibitor]: 0.03% IN DIET FOR 28 WK BEGINNING POST CARCINOGEN DOSE (STUDY DURATION: 30 WK), Route [Inhibitor]: ORAL, Species: RAT, Strain/Sex: WISTAR/MALE, Target Tissue: Type of Lesion: THYROID: ADENOMA, Dose [Carcinogen]: 210 MG/100 G 1/WK FOR 2 WK, Promoter: NONE USED): 9/13 (69%), 2/15 (13%), 81%, p<0.05
tumour outcome (control, treated, inhibition, significance) (Carcinogen: N-BIS(2-HYDROXYPROPYL)NITROSAMINE, 53609-64-6, Dose [Inhibitor]: 0.03% IN DIET FOR 28 WK BEGINNING POST CARCINOGEN DOSE (STUDY DURATION: 30 WK), Route [Inhibitor]: ORAL, Species: RAT, Strain/Sex: WISTAR/MALE, Target Tissue: Type of Lesion: THYROID: CARCINOMA, Dose [Carcinogen]: 210 MG/100 G 1/WK FOR 2 WK, Promoter: NONE USED): 2/13 (15%), 2/15 (13%), 13%, not calculated
tumour outcome (control, treated, inhibition, significance) (Carcinogen: N-BIS(2-HYDROXYPROPYL)NITROSAMINE, 53609-64-6, Dose [Inhibitor]: 0.15% IN DIET FOR 28 WK BEGINNING POST CARCINOGEN DOSE (STUDY DURATION: 30 WK), Route [Inhibitor]: ORAL, Species: RAT, Strain/Sex: WISTAR/MALE, Target Tissue: Type of Lesion: THYROID: ADENOMA, Dose [Carcinogen]: 210 MG/100 G 1/WK FOR 2 WK, Promoter: NONE USED): 9/13 (69%), 0/15 (0%), 100%, p<0.05

CCN(CC)CCCCOc1ccc(/C(=C(/Cl)c2ccccc2)c2ccccc2)cc1
tumour outcome (control, treated, inhibition, significance) (Carcinogen: N-METHYL-N-NITROSOUREA, 684-93-5, Dose [Inhibitor]: 0, 0.003 MG/KG BW 1/D FOR 90 D BEGINNING 1 WK POST CARCINOGEN DOSE (STUDY DURATION: 90 D), Route [Inhibitor]: GAVAGE, Species: RAT, Strain/Sex: SPRAGUE-DAWLEY/FEMALE, Target Tissue: Type of Lesion: MAMMARY GLAND: CARCINOMA, Dose [Carcinogen]: 50 MG/KG BW ONCE, Promoter: NONE USED): 100%, 50%, 50%, not calculated
tumour outcome (control, treated, inhibition, significance) (Carcinogen: N-METHYL-N-NITROSOUREA, 684-93-5, Dose [Inhibitor]: 0, 0.01 MG/KG BW 1/D FOR 90 D BEGINNING 1 WK POST CARCINOGEN DOSE (STUDY DURATION: 90 D), Route [Inhibitor]: GAVAGE, Species: RAT, Strain/Sex: SPRAGUE-DAWLEY/FEMALE, Target Tissue: Type of Lesion: MAMMARY GLAND: CARCINOMA, Dose [Carcinogen]: 50 MG/KG BW ONCE, Promoter: NONE USED): 100%, 30%, 70%, not calculated
tumour outcome (control, treated, inhibition, significance) (Carcinogen: N-METHYL-N-NITROSOUREA, 684-93-5, Dose [Inhibitor]: 0, 0.1 MG/KG BW 1/D FOR 85 D BEGINNING 1 WK POST CARCINOGEN DOSE (STUDY DURATION: 85 D), Route [Inhibitor]: GAVAGE, Species: RAT, Strain/Sex: SPRAGUE-DAWLEY/FEMALE, Target Tissue: Type of Lesion: MAMMARY GLAND: CARCINOMA, Dose [Carcinogen]: 50 MG/KG BW ONCE, Promoter: NONE USED): 100%, 5%, 95%, not calculated
tumour outcome (control, treated, inhibition, significance) (Carcinogen: N-METHYL-N-NITROSOUREA, 684-93-5, Dose [Inhibitor]: 0, 1 MG/KG BW 1/D FOR 85 D BEGINNING 1 WK POST CARCINOGEN DOSE (STUDY DURATION: 85 D), Route [Inhibitor]: GAVAGE, Species: RAT, Strain/Sex: SPRAGUE-DAWLEY/FEMALE, Target Tissue: Type of Lesion: MAMMARY GLAND: CARCINOMA, Dose [Carcinogen]: 50 MG/KG BW ONCE, Promoter: NONE USED): 100%, 5%, 95%, not calculated
